Experimental data taken from ChEMBL document CHEMBL4346695, “Thiophenol-formaldehyde triazole causes apoptosis induction in ovary cancer cells and prevents tumor growth formation in mice model” (2019).
Active and inactive are the calls of the source.

How the values were obtained:
Caov-4 = experiment: Growth inhibition of human Caov4 cells incubated for 48 hrs by MTT assay; assay type: functional, cell-based
Caov-3 cell line = experiment: Growth inhibition of human Caov3 cells incubated for 48 hrs by MTT assay; assay type: functional, cell-based
Homo sapiens = species on record: Homo sapiens; experiment: Growth inhibition of human ES2 cells incubated for 48 hrs by MTT assay; assay type: functional

Measured: growth inhibition (GI)

FC(F)(F)c1ccccc1-n1cc(COCc2ccccc2S)nn1
active: Caov-4 | Caov-3 cell line | Homo sapiens

FC(F)(F)c1ccc(-n2cc(COCc3ccccc3S)nn2)cc1
active: Caov-4 | Caov-3 cell line | Homo sapiens

Sc1ccccc1COCc1cn(-c2c(Cl)cc(Cl)cc2Cl)nn1
active: Caov-4 | Caov-3 cell line | Homo sapiens
